Test results published in the NIST ThermoML archive (doi:10.1016/j.fluid.2010.02.030).
± gives the expanded uncertainty stated by the source.

Conditions: Liquid, Ebulliometric method (Recirculating still)

SMILES | vapor or sublimation pressure (383.15 K) | vapor or sublimation pressure (387.74 K) | vapor or sublimation pressure (400.11 K) | vapor or sublimation pressure (408.87 K) | vapor or sublimation pressure (416.75 K) | vapor or sublimation pressure (422.84 K) | vapor or sublimation pressure (428.53 K) | vapor or sublimation pressure (433.42 K) | vapor or sublimation pressure (437.83 K) | vapor or sublimation pressure (442.22 K) | vapor or sublimation pressure (328.08 K) | vapor or sublimation pressure (336.1 K) | vapor or sublimation pressure (343.41 K) | vapor or sublimation pressure (350.44 K) | vapor or sublimation pressure (355.65 K) | vapor or sublimation pressure (360.57 K) | vapor or sublimation pressure (364.39 K) | vapor or sublimation pressure (368.05 K) | vapor or sublimation pressure (371.04 K)
Cc1ccc(C)c(C)c1 [1,2,4-trimethylbenzene] | 16.9 ± 0.4 kPa | 20.1 ± 0.4 kPa | 30.3 ± 0.4 kPa | 39.8 ± 0.4 kPa | 50.3 ± 0.4 kPa | 60 ± 0.4 kPa | 70.3 ± 0.4 kPa | 80.3 ± 0.4 kPa | 90.4 ± 0.4 kPa | 101.4 ± 0.4 kPa | – | – | – | – | – | – | – | – | –
CCCCS [1-butanethiol] | – | – | – | – | – | – | – | – | – | – | 23.1 ± 0.4 kPa | 31.4 ± 0.4 kPa | 40.9 ± 0.4 kPa | 52.1 ± 0.4 kPa | 61.9 ± 0.4 kPa | 72.6 ± 0.4 kPa | 81.9 ± 0.4 kPa | 91.6 ± 0.4 kPa | 100.5 ± 0.5 kPa
